Experimental findings from US20230399341A1, “7-PHENYL SUBSTITUTED 2-AMINOQUINAZOLINE INHIBITORS OF HPK1” (MERCK SHARP & DOHME LLC, priority 2020, published 2023) are described below.

The target of the assay is T1, Human HPK1, catalytic domain (Homo sapiens, UniProt Q92918).
T1 sequence (Q92918 1-346): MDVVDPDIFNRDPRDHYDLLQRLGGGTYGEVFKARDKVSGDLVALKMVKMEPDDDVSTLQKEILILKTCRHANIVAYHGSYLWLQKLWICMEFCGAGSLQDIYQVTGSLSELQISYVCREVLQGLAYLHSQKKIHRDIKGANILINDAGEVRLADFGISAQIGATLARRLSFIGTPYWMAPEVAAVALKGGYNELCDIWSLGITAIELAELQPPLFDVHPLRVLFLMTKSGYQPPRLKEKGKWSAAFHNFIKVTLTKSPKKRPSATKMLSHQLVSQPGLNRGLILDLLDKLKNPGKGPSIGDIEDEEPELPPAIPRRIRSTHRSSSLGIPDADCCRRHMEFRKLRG
As to the kind of experiment: HPK1-SLP76 TR-FRET Assay. Format: biochemical. Particulars: 75 pM HPK1, ATP 10 uM, SLP76 10 nM, 30 min pre-incubation, 60 min reaction.

Usually IC50 stands for the midpoint of a concentration-inhibition curve. Lower therefore signals greater potency. For the compound `COc1cc2c(cc1Nc1ncc3ccc(-c4ccc(CC#N)nc4)cc3n1)CN(C)CC2` [Compound 1-108, (5-{2-[(6-methoxy-2-methyl-1,2,3,4-tetrahydroisoquinolin-7-yl)amino]quinazolin-7-yl}pyridin-2-yl)acetonitrile], the IC50 stood at 56 nM.

The compound `Cc1c(-c2cc3nc(Nc4ccc(CC(N)=O)cc4)ncc3cc2F)cnc2c1NCCO2` [Compound 1-131, 2-(4-{[6-fluoro-7-(8-methyl-2,3-dihydro-1H-pyrido[2,3-b][1,4]oxazin-7-yl)quinazolin-2-yl]amino}phenyl)acetamide] registered an IC50 of 0.165 nM. The figure for `Cc1c(-c2cc3nc(Nc4ccc(CS(=O)(=O)C(C)C)cc4)ncc3c(N)c2F)cnc2c1NCCO2` [Compound 2-157, 6-fluoro-7-(8-methyl-2,3-dihydro-1H-pyrido[2,3-b][1,4]oxazin-7-yl)-N~2~- (4-{[(propan-2-yl)sulfonyl]methyl}phenyl) quinazoline-2,5-diamine] is 0.0689 nM; for `Cc1c(-c2cc3nc(Nc4ccc5c(c4)CN(C)CC5)ncc3c(N)c2F)cnc2c1NCC(C)O2` (single isomer, unassigned) [Compound 2-141, (R or S)-7-(3,8-dimethyl-2,3-dihydro-1H-pyrido[2,3-b][1,4]oxazin-7-yl)-6-fluoro-N2-(2-methyl-1,2,3,4-tetrahydroisoquinolin-7-yl)quinazoline-2,5-diamine] it is 0.0505 nM; for `COc1cc2c(cc1Nc1ncc3ccc(NC4C5COCC54)cc3n1)CN(C)CC2` (stereo not drawn) [Compound 3-74, N~2~-(6-methoxy-2-methyl-1,2,3,4-tetrahydroisoquinolin-7-yl)-N~7~-(3-oxabicyclo[3.1.0]-hexan-6-yl)quinazoline-2,7-diamine] it is 138 nM. In turn, `Cc1c(-c2c(F)c(N)c3cnc(Nc4ccc(CC(C)(C)O)cc4)nc3c2Cl)cnc2c1NCCO2` [Compound 2-167, 1-(4-{[5-amino-8-chloro-6-fluoro-7-(8-methyl-2,3-dihydro-1H-pyrido[2,3-b][1,4]oxazin-7-yl)quinazolin-2-yl]amino}phenyl)-2-methylpropan-2-ol] yielded an IC50 of 70.5 nM. The result for `COc1cc2c(cc1Nc1ncc3ccc(N4CC(C(N)=O)C4)cc3n1)CN(C)CC2` [Compound 3-53, 1-{2-[(6-methoxy-2-methyl-1,2,3,4-tetrahydroisoquinolin-7-yl)amino]quinazolin-7-yl}-azetidine-3-carboxamide] reads 669 nM; that for `COc1cc2c(cc1Nc1ncc3ccc(N[C@H]4CCN(C)C4=O)cc3n1)CN(C)CC2` [Compound 3-49, (3S)-3-({2-[(6-methoxy-2-meth-yl-1,2,3,4-tetrahydroisoquinolin-7-yl)amino]quinazolin-7-yl}-amino)-1-methylpyrrolidin-2-one], 96.7 nM; that for `Cc1ccc(C#N)cc1-c1cc2nc(Nc3ccc(CS(C)(=O)=O)cc3)ncc2c(N)c1F` [Compound 2-53, 3-[5-amino-6-fluoro-2-({4-[(methylsulfonyl)methyl]phenyl}amino)quinazolin-7-yl]-4-methylbenzonitrile], 131 nM.

`COc1cc2c(cc1Nc1ncc3ccc(Nc4ccc5c(c4)C(=O)NCC5)cc3n1)CN(C)CC2` [Compound 3-21, 7-({2-[(6-methoxy-2-methyl-1,2,3,4-tetrahydroisoquinolin-7-yl)amino]quinazolin-7-yl}-amino)-3,4-dihydroisoquinolin-1(2H)-one] showed an IC50 of 30.4 nM. Turning to `COc1cc2c(cc1Nc1ncc3ccc(-c4cnc5c(c4)OCCN5C)cc3n1)CNCC2` [Compound 1-29, N-(6-methoxy-1,2,3,4-tetrahydroisoquinolin-7-yl)-7-(4-methyl-3,4-dihydro-2H-pyrido[3,2-b][1,4]oxazin-7-yl)quinazolin-2-amine], the IC50 worked out at 85.8 nM. This IC50 is about 2.8-fold higher than that of the compound before. The figure for `COc1cc2c(cc1Nc1ncc3ccc(N[C@H]4CCC[C@@H]4O)cc3n1)CN(C)CC2` [Compound 3-58, (1S,2S)-2-({2-[(6-methoxy-2-methyl-1,2,3,4-tetrahydroiso-quinolin-7-yl)amino]quinazolin-7-yl}amino)cyclopentan-1-ol] is 180 nM. The figure for `Cc1c(-c2cc3nc(Nc4ccc5c(c4)CN(C)CCC5)ncc3c(N)c2F)cnc2c1NCCO2` [Compound 2-117, 6-fluoro-7-(8-methyl-2,3-dihydro-1H-pyrido[2,3-b][1,4]oxazin-7-yl)-N~2~- (2-methyl-2,3,4,5-tetrahydro-1H-2-benzazepin-8-yl)quinazoline-2,5-diamine] is 0.0406 nM; for `Cc1c(-c2cc3nc(Nc4ccc(S(C)(=O)=O)cc4)ncc3c(N)c2F)cnc2c1NCCO2` [Compound 2-17, 6-fluoro-7-(8-methyl-2,3-dihydro-1H-pyrido[2,3-b][1,4]oxazin-7-yl)-N~2~- [4-(methylsulfonyl)phenyl] quinazoline-2,5-diamine] it is 0.0851 nM; for `COc1cc2c(cc1Nc1ncc3ccc(-c4cc(C#N)ccc4OC)cc3n1)CNCC2` [Compound 1-63, 4-methoxy-3-{2-[(6-methoxy-1,2,3,4-tetrahydroisoquinolin-7-yl)amino]quinazolin-7-yl}benzonitrile] it is 45.7 nM. The compound `Cc1c(-c2cc3nc(Nc4ccc5c(c4)CN(CC(C)(C)O)C5=O)ncc3cc2F)cnc2c1NCCO2` [Compound 1-111, 5-{[6-fluoro-7-(8-methyl-2,3-dihydro-1H-pyrido[2,3-b][1,4]oxazin-7-yl)quinazolin-2-yl]amino}-2-(2-hydroxy-2-methylpropyl)-2,3-dihydro-1H-isoindol-1-one] registered an IC50 of 0.766 nM.

`COc1cc2c(cc1Nc1ncc3c(N)c(F)c(-c4cnc5ncsc5c4)cc3n1)CN(C)CC2` [Compound 2-47, 6-fluoro-N~2~-(6-methoxy-2-methyl-1,2,3,4-tetrahydroisoquinolin-7-yl)-7-([1,3]thiazolo[4,5-b]pyridin-6-yl)quinazoline-2,5-diamine] displayed an IC50 of 24.6 nM. The result for `Cc1c(-c2c(F)c(N)c3cnc(Nc4ccc5c(c4)CN(C)CC5)nc3c2Cl)cnc2c1NCCO2` [Compound 2-95, (+ or −)-8-chloro-6-fluoro-7-(8-methyl-2,3-dihydro-1H-pyrido[2,3-b][1,4]oxazin-7-yl)-N~2~- (2-methyl-1,2,3,4-tetrahydroisoquinolin-7-yl)quinazoline-2,5-diamine] reads 0.0589 nM. For the compound `COc1cc(CS(=O)(=O)C(C)C)ccc1Nc1ncc2c(N)c(F)c(-c3cnc4c(c3C)NCCO4)cc2n1` [Compound 2-168, 6-fluoro-N~2~-(2-methoxy-4-{[(propan-2-yl)sulfonyl]methyl}phenyl)-7-(8-methyl-2,3-dihydro-1H-pyrido[2,3-b][1,4]oxazin-7-yl)quinazoline-2,5-diamine], it took 0.104 nM to reach half-maximal inhibition (IC50). Consider `COc1cc2c(cc1Nc1ncc3ccc(-c4cc(F)ccc4CN)cc3n1)CN(C)CC2` [Compound 1-7, 7-[2-(aminomethyl)-5-fluorophenyl]-N-(6 methoxy-2-methyl-1,2,3,4-tetrahydroisoquinolin-7-yl)quinazolin-2-amine], for which the IC50 came out at 245 nM. Take `COc1cc2c(cc1Nc1ncc3ccc(-c4ccc(NC(C)=O)nc4)cc3n1)CN(C)CC2` [Compound 1-18, N-(5-{2-[(6-methoxy-2-methyl-1,2,3,4-tetrahydroisoquinolin-7-yl)amino]quinazolin-7-yl}pyridin-2-yl)acetamide]: the IC50 turned out to be 82.2 nM.
